The results in this text go back to article PMC6272579, “A Three-Enzyme-System to Degrade Curcumin to Natural Vanillin” (Molecules, 2015).

The target of the test is T1, CAL (Moesziomyces antarcticus, UniProt P41365).
T1 construct: immobilised commercial lipase Novozyme_435 (known to be lipase B)
T1 sequence (P41365 26-342): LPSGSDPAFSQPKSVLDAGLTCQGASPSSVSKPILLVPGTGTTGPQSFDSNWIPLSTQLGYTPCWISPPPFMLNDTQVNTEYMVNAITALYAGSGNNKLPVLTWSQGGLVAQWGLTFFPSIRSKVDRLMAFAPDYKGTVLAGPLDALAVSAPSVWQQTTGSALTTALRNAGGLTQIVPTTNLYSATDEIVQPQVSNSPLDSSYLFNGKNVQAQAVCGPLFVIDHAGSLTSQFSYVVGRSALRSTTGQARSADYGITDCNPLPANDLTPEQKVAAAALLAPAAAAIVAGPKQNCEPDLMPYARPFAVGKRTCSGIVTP
Briefly: lipase-catalysed acetylation, LC-MS. Type of test: biochemical. The note with it: immobilised enzyme; ethyl acetate/toluene 10:90, 4% acetate buffer pH 6, 40 °C; acyl donor geranyl acetate 1:50; acyl donor to curcumin.

Regarding `CC(=O)OC/C=C(\C)CCC=C(C)C` [geranyl acetate], the “lipase-catalysed acetylation, LC-MS” value was “using geranyl acetate as the acyl donor”.
